Assays:
Format in all cases: functional, cell-based
HT-1080 [1] = experiment: Antiproliferative activity against human HT-1080 cells assessed as cell growth inhibition measured after 48 hrs by SRB assay; conditions: HT-1080, 48 h
HT-29 [2] = experiment: Antiproliferative activity against human HT-29 cells assessed as cell growth inhibition measured after 48 hrs by SRB assay; conditions: HT-29, 48 h, read-out: IC50
MCF7 [3] = experiment: Antiproliferative activity against human MCF7 cells assessed as cell growth inhibition measured after 48 hrs in presence of uridine by SRB assay; conditions: MCF7, 48 h
MCF7 [4] = experiment: Antiproliferative activity against human MCF7 cells assessed as cell growth inhibition measured after 48 hrs by SRB assay; conditions: MCF7, 48 h, read-out: IC50
M21 [5] = experiment: Antiproliferative activity against human M21 cells assessed as cell growth inhibition measured after 48 hrs by SRB assay; conditions: M21, 48 h
HT-29 [6] = experiment: Antiproliferative activity against human HT-29 cells assessed as cell growth inhibition measured after 48 hrs in presence of uridine by SRB assay; conditions: HT-29, 48 h
M21 [7] = experiment: Antiproliferative activity against human M21 cells assessed as cell growth inhibition measured after 48 hrs in presence of uridine by SRB assay; conditions: M21, 48 h
HT-1080 [8] = experiment: Antiproliferative activity against human HT-1080 cells assessed as cell growth inhibition measured after 48 hrs in presence of uridine by SRB assay; conditions: HT-1080, 48 h

Cc1oncc1C(=O)Nc1ccc(C(F)(F)F)cc1 [LEFLUNOMIDE]
IC50 (HT-1080 [1]): 30 µM
IC50 (HT-29 [2]): 75 µM
IC50 (MCF7 [3]): 57 µM
IC50 (MCF7 [4]): 55 µM
IC50 (M21 [5]): 83 µM
IC50 (HT-29 [6]): 75 µM
IC50 (M21 [7]): 83 µM
IC50 (HT-1080 [8]): 38 µM
